From ChEMBL document CHEMBL4138206, “Acovenoside A Induces Mitotic Catastrophe Followed by Apoptosis in Non-Small-Cell Lung Cancer Cells” (J Nat Prod, 2017) come the findings set out here.

The structures appear in SMILES notation. The source made the active and inactive calls. No cut-off for these calls is given here. Some results are limits rather than exact numbers.

In data set [1] the target is T1, Cyclin-dependent kinase 1/cyclin B1 (Homo sapiens) (UniProt P06493+P14635). The experiment in a line: Activation of CDK1/cyclinB1 in human A549 cells at 50 to 100 nM after 12 hrs by western blot analysis. It is filed as cell-based.
T1 sequence (P06493 whole entry, looked up): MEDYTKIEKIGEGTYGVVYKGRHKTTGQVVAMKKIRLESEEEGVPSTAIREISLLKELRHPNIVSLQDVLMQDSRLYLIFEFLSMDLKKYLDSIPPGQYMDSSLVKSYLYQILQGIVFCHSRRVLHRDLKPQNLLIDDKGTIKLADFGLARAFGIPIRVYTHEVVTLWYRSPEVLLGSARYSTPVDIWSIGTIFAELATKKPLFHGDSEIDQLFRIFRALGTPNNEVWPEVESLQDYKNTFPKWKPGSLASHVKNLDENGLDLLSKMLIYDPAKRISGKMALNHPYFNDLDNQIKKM
T1 sequence (P14635 whole entry, looked up): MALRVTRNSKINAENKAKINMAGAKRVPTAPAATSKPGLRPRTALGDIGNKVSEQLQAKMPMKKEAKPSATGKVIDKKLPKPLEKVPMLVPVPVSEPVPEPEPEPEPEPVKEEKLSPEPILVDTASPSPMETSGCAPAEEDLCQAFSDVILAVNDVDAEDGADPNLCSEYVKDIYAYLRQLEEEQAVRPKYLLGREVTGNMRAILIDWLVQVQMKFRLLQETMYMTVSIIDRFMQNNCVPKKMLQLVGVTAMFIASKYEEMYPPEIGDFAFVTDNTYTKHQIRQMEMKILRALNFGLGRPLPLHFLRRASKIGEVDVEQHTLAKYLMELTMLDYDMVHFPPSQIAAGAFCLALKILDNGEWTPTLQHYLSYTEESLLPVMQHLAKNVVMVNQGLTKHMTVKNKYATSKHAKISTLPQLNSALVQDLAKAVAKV
Data set [2] relates to A549. Briefly: Cytotoxicity against human A549 cells assessed as reduction in cell viability after 24 hrs by XTT assay. Format: functional, cell-based. Particulars: A549, 24 h. Background: Formazan colour is commonly taken as a measure of viable cells.
Data set [3] deals with A549. Briefly: Cytotoxicity against human A549 cells assessed as reduction in cell viability after 48 hrs by XTT assay. Format: functional, cell-based. Particulars: A549, 48 h.
Data set [4] has as its system PBMC. Briefly: Cytotoxicity against human PBMC cells assessed as reduction in cell viability after 48 hrs by XTT assay. It is filed as cell-based.
Data set [5] has as its system MRC5. Briefly: Cytotoxicity against human MRC5 cells assessed as reduction in cell viability after 24 hrs by XTT assay. It is filed as cell-based. The note with it: MRC5, 24 h.
For data set [6], the system named is CAL-12T. Briefly: Cytotoxicity against human CAL-12T cells assessed as reduction in cell viability after 48 hrs by XTT assay. It is filed as functional, cell-based.
Data set [7] deals with HCC827. Briefly: Cytotoxicity against human HCC827 cells assessed as reduction in cell viability after 48 hrs by XTT assay. It is filed as functional, cell-based. Particulars: HCC827, 48 h.
In data set [8] the test system is MDA-MB-231. Briefly: Cytotoxicity against human MDA-MB-231 cells assessed as reduction in cell viability after 24 hrs by XTT assay. Format: functional, cell-based. The note with it: MDA-MB-231, 24 h.
In data set [9] the test system is MDA-MB-231. The experiment in a line: Cytotoxicity against human MDA-MB-231 cells assessed as reduction in cell viability after 48 hrs by XTT assay. Particulars: MDA-MB-231, 48 h. Format: functional, cell-based.
Data set [10] concerns A549. Briefly: Cell cycle arrest in human A549 cells assessed as accumulation at G2/M phase after 24 hrs by propidium iodide staining based flow cytometry. It is filed as functional.
The subject of data set [11] is A549. Briefly: Cell cycle arrest in human A549 cells assessed as accumulation at G2/M phase at 50 nM after 24 hrs by propidium iodide staining based flow cytometry (reference value: 18%). Format: functional.
Data set [12] concerns A549. Briefly: Cell cycle arrest in human A549 cells assessed as accumulation at G2/M phase at 100 nM after 24 hrs by propidium iodide staining based flow cytometry (reference value: 18%). It is filed as functional.
Data set [13] deals with A549. Briefly: Cell cycle arrest in human A549 cells assessed as accumulation at G0/G1 phase at 50 nM after 24 hrs by propidium iodide staining based flow cytometry (reference value: 61%). Format: functional. Background: A flow cytometer gives signals particle by particle.
Data set [14] deals with A549. Briefly: Cell cycle arrest in human A549 cells assessed as accumulation at G0/G1 phase at 100 nM after 24 hrs by propidium iodide staining based flow cytometry (reference value: 61%). It is filed as functional.
Data set [15] has as its system CAL-12T. Briefly: Cell cycle arrest in human CAL-12T cells at 50 to 100 nM after 24 hrs by propidium iodide staining based flow cytometry. Format: functional.
Data set [16] deals with HCC827. The experiment in a line: Cell cycle arrest in human HCC827 cells at 50 to 100 nM after 24 hrs by propidium iodide staining based flow cytometry. It is filed as functional.
The target in data set [17] is T1, Cyclin-dependent kinase 1/cyclin B1 (Homo sapiens). The experiment in a line: Activation of CDK1/cyclinB1 in human A549 cells at 100 nM after 24 hrs by western blot analysis. It is filed as cell-based. Background: A western blot detects proteins with antibodies after separation by electrophoresis.
Data set [18] concerns the target Cyclin-dependent kinase 1 (Homo sapiens) (UniProt P06493). Briefly: Activation of CDK1 in human A549 cells assessed as increase in CDK1 phosphorylation at Tyr15 residues at 100 nM after 24 hrs by western blot analysis. It is filed as cell-based.
The target of data set [19] is T1, Cyclin-dependent kinase 1/cyclin B1 (Homo sapiens). The experiment in a line: Activation of CDK1/cyclinB1 in human A549 cells assessed as increase in cytokinesis defects at 100 nM after 24 hrs by DAPI staining based assay. Format: cell-based.
Data set [20] concerns A549. Briefly: Induction of mitotic catastrophe in human A549 cells assessed as population of cells showing increase in size at 100 nM after 24 hrs by flow cytometry (reference value: 5.7%). It is filed as functional.
The test system of data set [21] is A549. Briefly: Induction of mitochondrial dysfunction in human A549 cells assessed as cell population with mitochondrial potential loss at 100 nM after 48 hrs by JC-1 staining based flow cytometry (reference value: 7%). Format: functional.
The test system of data set [22] is A549. Briefly: Induction of mitochondrial dysfunction in human A549 cells assessed as cell population with intact mitochondrial potential at 100 nM after 48 hrs by JC-1 staining based flow cytometry (reference value: 7%). Format: functional.
Data set [23] relates to A549. The experiment in a line: Induction of mitochondrial dysfunction in human A549 cells assessed as cell population with mitochondrial potential loss at 50 nM after 48 hrs by JC-1 staining based flow cytometry (reference value: 7%). Format: functional.
Data set [24] has as its system A549. Briefly: Induction of mitochondrial dysfunction in human A549 cells assessed as cell population with intact mitochondrial potential at 50 nM after 48 hrs by JC-1 staining based flow cytometry (reference value: 7%). Format: functional.
Data set [25] relates to A549. The experiment in a line: Induction of intracellular ROS production in human A549 cells at 50 nM after 48 hrs by H2DCFDA staining based flow cytometry relative to control. It is filed as functional.
In data set [26] the test system is A549. The experiment in a line: Induction of intracellular ROS production in human A549 cells at 100 nM after 48 hrs by H2DCFDA staining based flow cytometry relative to control. It is filed as functional.
Data set [27] deals with A549. The experiment in a line: Induction of mitochondrial dysfunction in human A549 cells assessed as decrease in ratio of red to green fluorescence intensity at 50 nM after 48 hrs by JC-1 staining based flow cytometry. It is filed as functional. Also noted: scale not given: the % may be the effect or the level left.
The test system of data set [28] is A549. Briefly: Induction of mitochondrial dysfunction in human A549 cells assessed as decrease in ratio of red to green fluorescence intensity at 100 nM after 48 hrs by JC-1 staining based flow cytometry. It is filed as functional. Also noted: scale not given: the % may be the effect or the level left.
The test system of data set [29] is A549. Briefly: Cytotoxicity against human A549 cells assessed as reduction in cell viability pretreated with ROS scavenger edaravone for 1 hr followed by compound addition measured after 24 hrs by XTT assay. It is filed as functional, cell-based.
Data set [30] has as its system A549. The experiment in a line: Cytotoxicity against human A549 cells assessed as reduction in cell viability pretreated with ROS scavenger tempol for 1 hr followed by compound addition measured after 24 hrs by XTT assay. It is filed as functional, cell-based.
For data set [31], the system named is A549. The experiment in a line: Cytotoxicity against human A549 cells assessed as reduction in cell viability pretreated with ROS scavenger ebselen for 1 hr followed by compound addition measured after 24 hrs by XTT assay. It is filed as functional, cell-based.
For data set [32], the system named is A549. Briefly: Induction of apoptosis in human A549 cells assessed as activation of caspase 3/7 at 50 nM after 48 hrs using Z-DEVD-R110 as substrate by flow cytometry (reference value: 9%). Format: functional.
Data set [33] concerns A549. The experiment in a line: Induction of apoptosis in human A549 cells assessed as activation of caspase 3/7 at 100 nM after 48 hrs using Z-DEVD-R110 as substrate by flow cytometry (reference value: 9%). Format: functional.
Data set [34] concerns A549. The experiment in a line: Induction of apoptosis in human A549 cells assessed as activation of caspase 3/7 after 48 hrs by flow cytometry. It is filed as functional, cell-based.
Data set [35] deals with A549. The experiment in a line: Induction of apoptosis in human A549 cells assessed as hypodiploid DNA content at 10 nM after 72 hrs by propidium iodide staining flow cytometry (reference value: 3 to 4%). It is filed as functional.
The test system of data set [36] is A549. Briefly: Induction of apoptosis in human A549 cells assessed as hypodiploid DNA content at 50 nM after 72 hrs by propidium iodide staining flow cytometry (reference value: 3 to 4%). Format: functional.
The test system of data set [37] is A549. The experiment in a line: Induction of apoptosis in human A549 cells assessed as hypodiploid DNA content at 100 nM after 72 hrs by propidium iodide staining flow cytometry (reference value: 3 to 4%). It is filed as functional.
The subject of data set [38] is CAL-12T. The experiment in a line: Induction of apoptosis in human CAL-12T cells assessed as increase in hypodiploid DNA content at 50 to 100 nM after 72 hrs by propidium iodide staining flow cytometry. Format: functional, cell-based.
Data set [39] has as its system HCC827. Briefly: Induction of apoptosis in human HCC827 cells assessed as increase in hypodiploid DNA content at 50 to 100 nM after 72 hrs by propidium iodide staining flow cytometry. It is filed as functional, cell-based.

One may read the IC50 as the point on the concentration scale where inhibition reaches its midpoint.

Chain of Cyclin-dependent kinase 1 (Homo sapiens) (P06493 whole entry, looked up): as the sequence (P06493 whole entry, looked up) above

`CO[C@H]1[C@H](O)[C@H](O[C@@H]2C[C@H]3CC[C@@H]4[C@H](CC[C@]5(C)[C@@H](C6=CC(=O)OC6)CC[C@]45O)[C@@]3(C)[C@H](O)C2)O[C@@H](C)[C@@H]1O`: the result in [1], in [15], in [17], in data set [18], in [29] and in data set [30] was Active. Moreover, the outcome in [31], in data set [38] and in [39] was Active. Moreover, the IC50 is 95 nM in [2]; 68 nM in data set [3]; > 1000 nM in data set [5]; 161 nM in data set [6]; 701 nM in data set [7]; 4200 nM in [8]. For the same molecule, the half-inhibitory concentration (IC50) in [9] came out at 1500 nM. The Activity entry in data set [4] was “Non-Toxic”; in data set [10], “Dose-dependent effect”; in data set [11], 29%; in data set [12], 43%; in data set [13], 50%; in data set [14] it was 31%. For the same molecule, the Activity in [19] amounted to 34.3%; in [20], 29.8%; in [21] it was 9%; in data set [22], 13.9%; in [23], 8.8%; in data set [24], 9%. Moreover, the Activity is 20% in data set [27]; 40% in data set [28]; 38% in data set [32]; 65% in [33]; “Dose-dependent effect” in [34]; 3% in data set [35]. Moreover, the Activity is on record as 13 - 17% in [36] and 51 - 55% in data set [37]. In addition, in data set [16], the result was inactive. In addition, the figures for the “fold change (FC)” value in [25] and in data set [26] were 1.5 and 2.8, respectively.

Turning to `COc1cccc2c1C(=O)c1c(O)c3c(c(O)c1C2=O)C[C@@](O)(C(=O)CO)C[C@@H]3O[C@H]1C[C@H](N)[C@H](O)[C@H](C)O1` [DOXORUBICIN], the Activity in [21] is reported as 8.2%; in [22] it was 12.4%.
